Laboratory results as given in the CheMixHub ionic liquid set.

Assay: xn = mol fraction of the nth substance listed
Conditions: 101 kPa, frequency 2 MHz

O=S(=O)([O-])C(F)(F)F.[Li+] + O=S(=O)([N-]S(=O)(=O)C(F)(F)F)C(F)(F)F.[Li+] + O
electrical conductivity [S/m]
Conditions	333 K	338.1 K	343 K	348.1 K	353 K	358.1 K
x2 = 0.001799, x1 = 0.0005943	–	1.57	1.67	1.77	1.86	1.942
x2 = 0.005377, x1 = 0.001799	–	3.913	4.16	4.39	4.601	4.79
x2 = 0.00893, x1 = 0.003054	–	5.77	6.124	6.46	6.76	7.029
x2 = 0.01246, x1 = 0.004127	–	7.28	7.725	8.142	8.518	8.846
x2 = 0.01596, x1 = 0.005377	–	8.517	9.039	9.522	9.96	10.33
x2 = 0.01944, x1 = 0.006623	–	9.534	10.12	10.7	11.13	11.5
x2 = 0.05129, x1 = 0.0177	–	12.8	13.6	14.26	14.9	15.41
x2 = 0.08265, x1 = 0.02921	–	11.3	12	12.6	13.18	13.7
x2 = 0.112, x1 = 0.04029	–	8.943	9.518	10.05	10.5	11
x2 = 0.1395, x1 = 0.05129	–	6.839	7.313	7.76	8.17	8.535
x2 = 0.1654, x1 = 0.06203	–	5.18	5.57	5.943	6.29	6.609
x2 = 0.1898, x1 = 0.07238	–	3.921	4.245	4.56	4.86	5.128
x2 = 0.2128, x1 = 0.08265	–	2.98	3.244	3.507	3.76	4
x2 = 0.2345, x1 = 0.0927	–	2.26	2.48	2.705	2.917	3.118
x2 = 0.2551, x1 = 0.1024	1.539	1.72	1.903	2.08	2.26	2.429
x2 = 0.2745, x1 = 0.112	1.16	1.303	1.45	1.6	1.744	1.88
